Test results taken from PubChem BioAssay (NCI).
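At the GI50, growth is halved. TGI is the concentration that stops growth completely.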

Experiments:
Assay in all cases: NCI tumour cell line growth inhibition, 384-well format
OVCAR-4 ovarian = test system: OVCAR-4 ovarian
MCF7 breast = test system: MCF7 breast
UO-31 renal = test system: UO-31 renal
786-0 renal = test system: 786-0 renal
OVCAR-5 ovarian = test system: OVCAR-5 ovarian
U251 glioblastoma = test system: U251 glioblastoma
SK-MEL-28 melanoma = test system: SK-MEL-28 melanoma
DU-145 prostate = test system: DU-145 prostate
RXF 393 renal = test system: RXF 393 renal
HCT-15 colon = test system: HCT-15 colon
MALME-3M melanoma = test system: MALME-3M melanoma
NCI-H322M lung = test system: NCI-H322M lung
ACHN renal = test system: ACHN renal
TK-10 renal = test system: TK-10 renal
CAKI-1 renal = test system: CAKI-1 renal
SN12C renal = test system: SN12C renal
SF-539 CNS = test system: SF-539 CNS
UACC-62 melanoma = test system: UACC-62 melanoma
MDA-MB-231 breast = test system: MDA-MB-231 breast
SNB-19 CNS = test system: SNB-19 CNS
HOP-92 NSCLC = test system: HOP-92 NSCLC
NCI/ADR-RES ovarian = test system: NCI/ADR-RES ovarian
SK-OV-3 ovarian = test system: SK-OV-3 ovarian
NCI-H23 lung = test system: NCI-H23 lung
LOX IMVI melanoma = test system: LOX IMVI melanoma
HOP-62 NSCLC = test system: HOP-62 NSCLC
HCT-116 colon = test system: HCT-116 colon
HS 578T breast = test system: HS 578T breast
COLO 205 colon = test system: COLO 205 colon
RPMI-8226 leukemia = test system: RPMI-8226 leukemia
NCI-H226 lung = test system: NCI-H226 lung
SK-MEL-5 melanoma = test system: SK-MEL-5 melanoma
HT29 colon = test system: HT29 colon
SK-MEL-2 melanoma = test system: SK-MEL-2 melanoma
SNB-75 CNS = test system: SNB-75 CNS
SF-295 CNS = test system: SF-295 CNS
MDA-MB-468 breast = test system: MDA-MB-468 breast
EKVX NSCLC = test system: EKVX NSCLC
OVCAR-3 ovarian = test system: OVCAR-3 ovarian
KM12 colon = test system: KM12 colon
A498 renal = test system: A498 renal
SF-268 CNS = test system: SF-268 CNS
MDA-MB-435 melanoma = test system: MDA-MB-435 melanoma
PC-3 prostate = test system: PC-3 prostate
IGROV1 ovarian = test system: IGROV1 ovarian
MOLT-4 leukemia = test system: MOLT-4 leukemia
NCI-H460 NSCLC = test system: NCI-H460 NSCLC
HL-60(TB) leukemia = test system: HL-60(TB) leukemia
NCI-H522 lung = test system: NCI-H522 lung
BT-549 breast = test system: BT-549 breast
HCC-2998 colon = test system: HCC-2998 colon
CCRF-CEM leukemia = test system: CCRF-CEM leukemia
SR leukemia = test system: SR leukemia
A549 NSCLC = test system: A549 NSCLC
K-562 leukemia = test system: K-562 leukemia

O=C1NC(=O)[C@@H](c2cn3c4c(cccc24)CCC3)[C@@H]1c1c[nH]c2ccccc12
GI50 (OVCAR-4 ovarian): 2160 nM
TGI (OVCAR-4 ovarian): 20700 nM
GI50 (MCF7 breast): 141 nM
TGI (MCF7 breast): 11600 nM
GI50 (UO-31 renal): 365 nM
TGI (UO-31 renal): 16700 nM
GI50 ([…]-0 renal): 332 nM
TGI (786-0 renal): 12400 nM
GI50 (OVCAR-5 ovarian): 1620 nM
TGI (OVCAR-5 ovarian): 17300 nM
GI50 (U251 glioblastoma): 280 nM
TGI (U251 glioblastoma): 1790 nM
GI50 (SK-MEL-28 melanoma): 311 nM
TGI (SK-MEL-28 melanoma): 16600 nM
GI50 (DU-145 prostate): 451 nM
TGI (DU-145 prostate): 2990 nM
GI50 (RXF 393 renal): 26.8 nM
TGI (RXF 393 renal): 380 nM
GI50 (HCT-15 colon): 40.6 nM
TGI (HCT-15 colon): 4940 nM
GI50 (MALME-3M melanoma): 260 nM
TGI (MALME-3M melanoma): 11500 nM
GI50 (NCI-H322M lung): 558 nM
TGI (NCI-H322M lung): 13800 nM
GI50 (ACHN renal): 409 nM
TGI (ACHN renal): 14500 nM
GI50 (TK-10 renal): 420 nM
TGI (TK-10 renal): 15700 nM
GI50 (CAKI-1 renal): 71.2 nM
TGI (CAKI-1 renal): 12000 nM
GI50 (SN12C renal): 401 nM
TGI (SN12C renal): 12700 nM
GI50 (SF-539 CNS): 244 nM
TGI (SF-539 CNS): 1070 nM
GI50 (UACC-62 melanoma): 96.9 nM
TGI (UACC-62 melanoma): 525 nM
GI50 (MDA-MB-231 breast): 398 nM
TGI (MDA-MB-231 breast): 15400 nM
GI50 (SNB-19 CNS): 347 nM
TGI (SNB-19 CNS): 12000 nM
GI50 (HOP-92 NSCLC): 410 nM
TGI (HOP-92 NSCLC): 10700 nM
GI50 (NCI/ADR-RES ovarian): 203 nM
TGI (NCI/ADR-RES ovarian): 787 nM
GI50 (SK-OV-3 ovarian): 184 nM
TGI (SK-OV-3 ovarian): 3710 nM
GI50 (NCI-H23 lung): 269 nM
TGI (NCI-H23 lung): 6960 nM
GI50 (LOX IMVI melanoma): 453 nM
TGI (LOX IMVI melanoma): 2100 nM
GI50 (HOP-62 NSCLC): 252 nM
TGI (HOP-62 NSCLC): 11800 nM
GI50 (HCT-116 colon): 285 nM
TGI (HCT-116 colon): 3630 nM
GI50 (HS 578T breast): 123 nM
TGI (HS 578T breast): 295 nM
GI50 (COLO 205 colon): 281 nM
TGI (COLO 205 colon): 7770 nM
GI50 (RPMI-8226 leukemia): 154 nM
TGI (RPMI-8226 leukemia): 308 nM
GI50 (NCI-H226 lung): 400 nM
TGI (NCI-H226 lung): 7390 nM
GI50 (SK-MEL-5 melanoma): 115 nM
TGI (SK-MEL-5 melanoma): 595 nM
GI50 (HT29 colon): 180 nM
TGI (HT29 colon): 494 nM
GI50 (SK-MEL-2 melanoma): 256 nM
TGI (SK-MEL-2 melanoma): 497 nM
GI50 (SNB-75 CNS): 246 nM
TGI (SNB-75 CNS): 10100 nM
GI50 (SF-295 CNS): 246 nM
TGI (SF-295 CNS): 1230 nM
GI50 (MDA-MB-468 breast): 53.3 nM
TGI (MDA-MB-468 breast): 204 nM
GI50 (EKVX NSCLC): 340 nM
TGI (EKVX NSCLC): 13900 nM
GI50 (OVCAR-3 ovarian): 21.9 nM
TGI (OVCAR-3 ovarian): 149 nM
GI50 (KM12 colon): 28 nM
TGI (KM12 colon): 1990 nM
GI50 (A498 renal): 307 nM
TGI (A498 renal): 8830 nM
GI50 (SF-268 CNS): 281 nM
TGI (SF-268 CNS): 2700 nM
GI50 (MDA-MB-435 melanoma): 24.9 nM
TGI (MDA-MB-435 melanoma): 141 nM
GI50 (PC-3 prostate): 145 nM
TGI (PC-3 prostate): 8340 nM
GI50 (IGROV1 ovarian): 403 nM
TGI (IGROV1 ovarian): 12400 nM
GI50 (MOLT-4 leukemia): 52 nM
TGI (MOLT-4 leukemia): 199 nM
GI50 (NCI-H460 NSCLC): 155 nM
TGI (NCI-H460 NSCLC): 630 nM
GI50 (HL-60(TB) leukemia): 124 nM
TGI (HL-60(TB) leukemia): 252 nM
GI50 (NCI-H522 lung): 13.2 nM
TGI (NCI-H522 lung): 93.7 nM
GI50 (BT-549 breast): 154 nM
TGI (BT-549 breast): 718 nM
TGI (HCC-2998 colon): 1260 nM
GI50 (CCRF-CEM leukemia): 119 nM
TGI (CCRF-CEM leukemia): 246 nM
TGI (SR leukemia): 14.9 nM
GI50 (A549 NSCLC): 413 nM
TGI (A549 NSCLC): 14100 nM
GI50 (K-562 leukemia): 21.5 nM
TGI (K-562 leukemia): 373 nM
